# Source: patent US20240226211A9, “SEAWEED EXTRACTS, ISOLATED COMPOUNDS, AND METHODS OF TREATMENT” (University of Florida Research Foundation, Incorporated, priority 2017, published 2024)
# How the values were obtained:
# zebrafish = test: Phenotypic toxicity in zebrafish; type: in vivo, Danio rerio; conditions: embryos and adults
# Keap1 (Cys-151) = target: T1, Keap1 (Cys-151) (Homo sapiens, UniProt Q14145); test: Keap1 Cys-151 reactivity in co-transfected HEK293 cells; type: cell-based; conditions: for Keap1-associated Cul3 / Keap1-Cul3 interaction: Keap1-CBD and HA-Cul3
# T1 construct: expressed in transfected cells; host or cells: HEK293
# T1 sequence (Q14145 whole entry): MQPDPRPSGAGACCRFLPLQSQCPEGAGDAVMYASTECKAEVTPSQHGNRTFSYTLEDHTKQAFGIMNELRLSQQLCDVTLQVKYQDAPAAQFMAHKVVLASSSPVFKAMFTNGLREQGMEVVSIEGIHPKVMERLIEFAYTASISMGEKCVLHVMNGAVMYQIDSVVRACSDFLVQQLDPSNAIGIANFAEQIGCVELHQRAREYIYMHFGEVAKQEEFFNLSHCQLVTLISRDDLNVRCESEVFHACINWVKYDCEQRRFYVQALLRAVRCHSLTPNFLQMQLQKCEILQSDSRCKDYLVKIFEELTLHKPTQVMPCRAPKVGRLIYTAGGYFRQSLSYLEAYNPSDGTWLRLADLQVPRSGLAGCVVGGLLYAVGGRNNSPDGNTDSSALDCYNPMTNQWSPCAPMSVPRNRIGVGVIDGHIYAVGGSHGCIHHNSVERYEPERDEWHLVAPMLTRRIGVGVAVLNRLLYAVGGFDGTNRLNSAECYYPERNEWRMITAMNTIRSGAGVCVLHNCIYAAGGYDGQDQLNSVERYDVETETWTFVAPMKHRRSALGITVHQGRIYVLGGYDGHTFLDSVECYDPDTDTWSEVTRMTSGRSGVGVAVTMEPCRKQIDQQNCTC
# Excerpt: The ARE-luciferase reporter construct (ARE-luc) contains the core sequence of human NQO1-ARE1. […] Mol. Cell. […] The Keap1-CBD plasmid carries the entire open reading frame (ORF) of human Keap1 fused to the chitin binding domain (CBD) of the Bacillus circulans chitinase A1 gene upstream of the Keap1 stop codon. Oligonucleotide-directed mutagenesis was used to generate the Keap1-C151S-CBD and Keap1-C288S-CBD plasmids. The HA-Cul3 plasmid was constructed by fusing an N-terminal hemagglutinin (HA) tag with a cDNA sequence coding for amino acids 1-380 of human Cul3 gene. The Gal4-Neh2 expression vector contains the codons for the first 97 amino acids (Neh2 domain) of human Nrf2 fused to the ORF of the Gal4 DNA-binding domain
# The reactivity at the amino acid level of KEAP1 was then investigated. […] In order to evaluate specific cysteine residues which may be alkylated in the presence of cymopols, HEK293 cells were co-transfected with either a mock plasmid, a wild-type Keap1-CBD, or a Keap1-C151S-CBD and HA-Cul3 (to evaluate Cul3 binding inhibition upon cymopol addition), HA-Nrf2 (to evaluate Nrf2-Keap1 interactions), or Gal4-Neh2 and HA-Ub (to evaluate ubiquitination patterns of Nrf2).
# iNOS = iNOS transcript levels in RAW264.7 macrophage cells; type: cell-based, mouse; conditions: 10 μM Compound 1, IFN-γ
# Experimental: (§1) The RNeasy Mini Kit (Qiagen) was used to collect total RNA from cells, while for mouse tissue, TRIzol reagent (Invitrogen) was used. In each case, total RNAs (2 μg) were reverse-transcribed into cDNAs, which were used as templates for TaqMan gene expression assay (Applied Biosystems) and detected using the 7300 Real-Time PCR System (Applied Biosystems). Each qPCR sample was tested in triplicate as a 25 μL total reaction volume (12.5 μL of Taqman 2× universal master mix, 1.25 μL of a 20× TaqMan gene expression assay probe, 1 μL of the above cDNA, and 10.25 μL of RNase-free sterile water). The qPCR method was designed as following: 50° C. for 2 min, 95° C. for 10 min, and 40 cycles of 95° C. for 15 s and 60° C. for 1 min. Endogenous controls used included GAPDH for IMR-32 cells and β-actin to normalize for RAW264.7 cells and mouse tissues.
# RAW264.7 cells were seeded in 6-well plates (8×10^5 cells/well) and incubated at 37° C. overnight.
# Hmox1 = Hmox1 transcript levels in mouse organs after oral gavage; type: in vivo; conditions: mice, particularly digestive tract
# Experimental: as §1
# The experiments were approved by the Institutional Animal Care & Use Committee at the University of Florida. Groups of 5-10 wild type male mice (C57BL/6J) were used for each treatment type. The mice were maintained under approved standard conditions. […] The tissues were harvested immediately, frozen on dry ice, and kept at −80° C. until analyzed.
# A low dose and a high dose of cymopol (1) or the NP extract were administered to 4-week-old male mice via oral gavage.
# [1] = Toxicity observation in mice after oral gavage; type: in vivo; conditions: oral gavage 3 consecutive days
# Experimental: The experiments were approved by the Institutional Animal Care & Use Committee at the University of Florida. Groups of 5-10 wild type male mice (C57BL/6J) were used for each treatment type. The mice were maintained under approved standard conditions. Cymopol (1) and the non-polar extract (NP extract) were dissolved in Chremophor EL (Sigma) containing 10% DMSO and administered via oral gavage for 3 consecutive days, with 24 h between each treatment. […] 12 h following the final treatment, the mice were euthanized in 100% CO2. The tissues were harvested immediately, frozen on dry ice, and kept at −80° C. until analyzed.
# Nrf2 = test: RNA interference of Nrf2 in IMR-32 cells, NQO1 induction; type: cell-based, human; conditions: IMR-32, 48 h RNAi then 24 h treatment
# Experimental: The media was then carefully aspirated and replaced with a transfection mixture composed of siRNAs (50 nM) and siLentFect™ lipid transfection reagent (Bio-Rad Laboratories) in fresh medium. […] The siRNAs, siGENOME Non-Targeting siRNA Pools and siGENOME SMARTpool (human NFE2L2), were purchased from Dharmacon.
# In order to determine whether NQO1 induction is Nrf2 dependent, IMR-32 cells were transfected with siRNA targeting Nrf2 or non-targeting siRNA. After 48 hours of RNAi of Nrf2, cells were treated with the samples or the vehicle control for 24 hours.
# [2] = tested on: nitric oxide (NO) production in RAW264.7 cells; test: NO assay in RAW264.7 cells; type: cell-based, mouse; conditions: 10 μM Compound 1, IFN-γ
# Experimental: RAW264.7 cells (2×10^4 cells/well), wild-type (8×10^3 cells/well), Nrf2−/−(7×10^3 cells/well), and Keap1−/−(5×10^3 cells/well) MEF were seeded into 96-well format. Cells were pretreated for 1 h with a solvent control (DMSO, 1%, v/v) or serial dilutions of isolated compounds or extracts before addition of LPS (1 μg/mL) or IFN-γ (10 ng/mL). […] In each case, 50 μL of the media was combined with 50 μL Griess Reagent (Promega). Absorbance was measured at 540 nm and compared with a calibration curve generated using the provided […] standard.
compound,measurement,setting,value
"CC(C)=CCC/C(C)=C/Cc1cc(O)c(Br)cc1O [Compound 1, (E)-2-bromo-5-(3,7-dimethylocta-2,6-dien-1-yl)benzene-1,4-diol]",toxicity in zebrafish,zebrafish,demonstrate toxicities at fairly low concentrations
same,Keap1-associated Cul3 / Keap1-Cul3 interaction,Keap1 (Cys-151),increase binding of Keap1-Cul3 interaction
same,Keap1-associated Cul3 / Keap1-Cul3 interaction,Keap1 (Cys-151); listed as compound 1,reduced
same,dimerization of Keap1,"Keap1 (Cys-151); Keap1-CBD and HA-Nrf2, dependent on Cys-151",increase dimerization of Keap1
same,Neh2 ubiquitination,"Keap1 (Cys-151); wild-type Keap1, Gal4-Neh2 and HA-Ub, preliminary data",less Neh2 ubiquitination
same,levels of Neh2,"Keap1 (Cys-151); wild-type Keap1, preliminary data",higher levels of Neh2
same,lowering of induced iNOS transcript levels,iNOS,> 96%
same,transcript levels of Hmox1 in various organs,Hmox1,elevated transcript levels of Hmox1
same,apparent toxicity,[1],No apparent toxicity was observed
same,induction of NQO1 transcript levels in siNrf2 transfected cells,Nrf2,inhibited in siNrf2 transfected cells
same,reduction in levels of NO,[2],> 96%
